Experimental data as given in patent US10336739B2, “4-hydroxy-3-(heteroaryl)pyridine-2-one APJ agonists” (BRISTOL-MYERS SQUIBB COMPANY, priority 2015, dated 2019).

Molecular target: human APJ receptor (Homo sapiens (Human), UniProt P35414)
Experiment: Intracellular cAMP accumulation assay (APJ hcAMP, HTRF)
Format: cell-based
Conditions: HEK293 cells stably expressing human APJ receptor; inhibition of forskolin-mediated cAMP production; read-out: hAPJ cAMP EC50 Potency range
Method: Intracellular cAMP Accumulation Assay
HEK293 cells stably expressing human APJ receptor were used to assess the activity of compounds. Cultured cells were detached and resuspended in the cAMP Homogeneous Time-Resolved Fluorescence (HTRF) assay buffer (Cisbio cat; #62AM4PEJ). The assay was performed in 384-well assay plates (Perkin-Elmer; cat #6008289) according to assay protocol provided by the manufacturer. Serial dilutions of a compound together with assay buffer containing […] and 2 μM forskolin were added to each well containing 5,000 cells and incubated for 30 minutes at room temperature. Subsequently, cAMP D2 reagent was added in the lysis buffer followed by the EuK antibody (Cisbio; cat #62AM4PEJ) and incubated for 60 min. The fluorescence emission ratio was measured using fluorometer. The intracellular cAMP concentrations (compound-stimulated inhibition of forskolin-mediated cAMP production) were calculated by extrapolation from a standard curve using known cAMP concentrations. The EC50 values were obtained by fitting the data to a sigmoidal concentration-response curve with variable slope.

human APJ receptor, sequence (P35414 whole entry): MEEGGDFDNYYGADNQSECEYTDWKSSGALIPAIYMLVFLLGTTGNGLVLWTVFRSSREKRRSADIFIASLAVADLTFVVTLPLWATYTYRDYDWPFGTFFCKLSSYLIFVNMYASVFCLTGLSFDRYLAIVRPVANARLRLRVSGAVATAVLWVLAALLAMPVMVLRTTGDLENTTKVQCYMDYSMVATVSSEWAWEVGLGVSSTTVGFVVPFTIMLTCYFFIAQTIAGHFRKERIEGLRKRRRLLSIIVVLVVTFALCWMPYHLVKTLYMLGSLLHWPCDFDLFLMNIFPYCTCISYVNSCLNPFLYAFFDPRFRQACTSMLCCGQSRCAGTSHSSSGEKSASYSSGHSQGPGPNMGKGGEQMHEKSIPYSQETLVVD

Compound	EC50
CCCCc1nc(O)c(-c2nnc(C(C)(C)c3ccc(Cl)cc3)o2)c(O)c1-c1c(OC)cccc1OC [Example 31, 6-butyl-3-{5-[2-(4-chlorophenyl)propan-2-yl]-1,3,4-oxadiazol-2-yl}-5-(2,6-dimethoxyphenyl) pyridine-2,4-diol]	0.01 to 10 nM
CCCCc1nc(O)c(-c2nnc(Cc3ccc(F)cc3)o2)c(O)c1-c1c(OC)cccc1OC [Example 32, 6-butyl-5-(2,6-dimethoxyphenyl)-3-{5-[(4-fluorophenyl)methyl]-1,3,4-oxadiazol-2-yl}pyridine-2,4-diol]	0.01 to 10 nM
CCCCc1nc(O)c(-c2nnc(Cc3ccc(Cl)c(Cl)c3)o2)c(O)c1-c1c(OC)cccc1OC [Example 33, 6-butyl-3-{5-[(3,4-dichlorophenyl)methyl]-1,3,4-oxadiazol-2-yl}-5-(2,6-dimethoxyphenyl) pyridine-2,4-diol]	0.01 to 10 nM
CCCCc1nc(O)c(-c2nnc(Cc3ccc(F)c(C(F)(F)F)c3)o2)c(O)c1-c1c(OC)cccc1OC [Example 34, 6-butyl-5-(2,6-dimethoxyphenyl)-3-(5-{[4-fluoro-3-(trifluoromethyl)phenyl]methyl}-1,3,4-oxadiazol-2-yl)pyridine-2,4-diol]	10 to 100 nM
CCCCc1nc(O)c(-c2nnc(Cc3ccc(Cl)cc3Cl)o2)c(O)c1-c1c(OC)cccc1OC [Example 35, 6-butyl-3-{5-[(2,4-dichlorophenyl)methyl]-1,3,4-oxadiazol-2-yl}-5-(2,6-dimethoxyphenyl) pyridine-2,4-diol]	0.01 to 10 nM
CCCCc1nc(O)c(-c2nnc(Cc3c(C)n[nH]c3C)o2)c(O)c1-c1c(OC)cccc1OC [Example 36, 6-butyl-5-(2,6-dimethoxyphenyl)-3-{5-[(3,5-dimethyl-1H-pyrazol-4-yl)methyl]-1,3,4-oxadiazol-2-yl}pyridine-2,4-diol]	10 to 100 nM
CCCCc1nc(O)c(-c2nnc(Cc3ccc(C#N)cc3)o2)c(O)c1-c1c(OC)cccc1OC [Example 37, 4-({5-[6-butyl-5-(2,6-dimethoxyphenyl)-2,4-dihydroxypyridin-3-yl]-1,3,4-oxadiazol-2-yl}methyl) benzonitrile]	0.01 to 10 nM
CCCCc1nc(O)c(-c2nnc(Cc3ccc(F)c(F)c3)o2)c(O)c1-c1c(OC)cccc1OC [Example 38, 6-butyl-3-{5-[(3,4-difluorophenyl)methyl]-1,3,4-oxadiazol-2-yl}-5-(2,6-dimethoxyphenyl) pyridine-2,4-diol]	0.01 to 10 nM
CCCCc1nc(O)c(-c2nnc(Cc3csc(-c4ccc(Cl)cc4)n3)o2)c(O)c1-c1c(OC)cccc1OC [Example 39, 6-butyl-3-(5-{[2-(4-chlorophenyl)-1,3-thiazol-4-yl]methyl}-1,3,4-oxadiazol-2-yl)-5-(2,6-dimethoxyphenyl) pyridine-2,4-diol]	10 to 100 nM
CCCCc1nc(O)c(-c2nnc(C(C)c3ccc(Cl)cc3)o2)c(O)c1-c1c(OC)cccc1OC (stereo not shown) [Example 40, 6-butyl-3-{5-[1-(4-chlorophenyl)ethyl]-1,3,4-oxadiazol-2-yl}-5-(2,6-dimethoxyphenyl) pyridine-2,4-diol]	0.01 to 10 nM
CCCCc1nc(O)c(-c2nnc(Cc3nonc3C)o2)c(O)c1-c1c(OC)cccc1OC [Example 41, 6-butyl-5-(2,6-dimethoxyphenyl)-3-{5-[(4-methyl-1,2,5-oxadiazol-3-yl)methyl]-1,3,4-oxadiazol-2-yl}pyridine-2,4-diol]	0.01 to 10 nM
CCCCc1nc(O)c(-c2nnc(COc3ccc(F)cc3)o2)c(O)c1-c1c(OC)cccc1OC [Example 42, 6-butyl-5-(2,6-dimethoxyphenyl)-3-[5-(4-fluoro-phenoxymethyl)-1,3,4-oxadiazol-2-yl]pyridine-2,4-diol]	10 to 100 nM
CCCCc1nc(O)c(-c2nnc(Cc3ccc(F)c(OC)c3)o2)c(O)c1-c1c(OC)cccc1OC [Example 48, 6-butyl-5-(2,6-dimethoxyphenyl)-3-{5-[(4-fluoro-3-methoxyphenyl)methyl]-1,3,4-oxadiazol-2-yl}pyridine-2,4-diol]	0.01 to 10 nM
CCCCc1nc(O)c(-c2nnc(COc3ccc(Cl)c(Cl)c3)o2)c(O)c1-c1c(OC)cccc1OC [Example 50, 6-butyl-3-[5-(3,4-dichlorophenoxy-methyl)-1,3,4-oxadiazol-2-yl]-5-(2,6-dimethoxyphenyl) pyridine-2,4-diol]	10 to 100 nM
CCCCc1nc(O)c(-c2nnc(Cc3cc(C)no3)o2)c(O)c1-c1c(OC)cccc1OC [Example 51, 6-butyl-5-(2,6-dimethoxyphenyl)-3-{5-[(3-methyl-1,2-oxazol-5-yl)methyl]-1,3,4-oxadiazol-2-yl}pyridine-2,4-diol]	0.01 to 10 nM
CCCCc1nc(O)c(-c2nnc(COc3ccc(Cl)cc3)o2)c(O)c1-c1c(OC)cccc1OC [Example 53, 6-butyl-3-[5-(4-chlorophenoxy-methyl)-1,3,4-oxadiazol-2-yl]-5-(2,6-dimethoxyphenyl) pyridine-2,4-diol]	10 to 100 nM
CCCCc1nc(O)c(-c2nnc(CC(C)(C)c3ccc(Cl)cc3)o2)c(O)c1-c1c(OC)cccc1OC [Example 54, 6-butyl-3-{5-[2-(4-chlorophenyl)-2-methylpropyl]-1,3,4-oxadiazol-2-yl}-5-(2,6-dimethoxyphenyl) pyridine-2,4-diol]	0.01 to 10 nM
CCCCc1nc(O)c(-c2nnc(Cc3ccc(OC(F)(F)F)cc3)o2)c(O)c1-c1c(OC)cccc1OC [Example 56, 6-butyl-5-(2,6-dimethoxyphenyl)-3-(5-{[4-(trifluoromethoxy)phenyl]methyl}-1,3,4-oxadiazol-2-yl)pyridine-2,4-diol]	0.01 to 10 nM
CCCCc1nc(O)c(-c2nnc(Cc3cc(F)cc(C(F)(F)F)c3)o2)c(O)c1-c1c(OC)cccc1OC [Example 57, 6-butyl-5-(2,6-dimethoxyphenyl)-3-(5-{[3-fluoro-5-(trifluoromethyl)phenyl]methyl}-1,3,4-oxadiazol-2-yl)pyridine-2,4-diol]	10 to 100 nM

Next, values leading:

EC50	Compound
10 to 100 nM	CCCCc1nc(O)c(-c2nnc(CCc3ncc(-c4ccccc4)o3)o2)c(O)c1-c1c(OC)cccc1OC [Example 28, 6-butyl-5-(2,6-dimethoxyphenyl)-3-{5-[2-(5-phenyl-1,3-oxazol-2-yl)ethyl]-1,3,4-oxadiazol-2-yl}pyridine-2,4-diol]
0.01 to 10 nM	CCCCc1nc(O)c(-c2nnc(CCc3nccn3C)o2)c(O)c1-c1c(OC)cccc1OC [Example 29, 6-butyl-5-(2,6-dimethoxyphenyl)-3-{5-[2-(1-methyl-1H-imidazol-2-yl)ethyl]-1,3,4-oxadiazol-2-yl}pyridine-2,4-diol]
0.01 to 10 nM	CCCCc1nc(O)c(-c2nnc(Cc3ccc(Cl)nc3)o2)c(O)c1-c1c(OC)cccc1OC [Example 30, 6-butyl-3-{5-[(6-chloropyridin-3-yl)methyl]-1,3,4-oxadiazol-2-yl}-5-(2,6-dimethoxyphenyl) pyridine-2,4-diol]
0.01 to 10 nM	CCCCc1nc(O)c(-c2nnc(Cc3n[nH]c4ccccc34)o2)c(O)c1-c1c(OC)cccc1OC [Example 43, 6-butyl-5-(2,6-dimethoxyphenyl)-3-[5-(1H-indazol-3-ylmethyl)-1,3,4-oxadiazol-2-yl]pyridine-2,4-diol]
10 to 100 nM	CCCCc1nc(O)c(-c2nnc(Cc3n[nH]c(=O)c4ccccc34)o2)c(O)c1-c1c(OC)cccc1OC [Example 44, 4-({5-[6-butyl-5-(2,6-dimethoxyphenyl)-2,4-dihydroxypyridin-3-yl]-1,3,4-oxadiazol-2-yl}methyl)-1,2-dihydrophthalazin-1-one]
10 to 100 nM	CCCCc1nc(O)c(-c2nnc(C(OC)c3ccccc3)o2)c(O)c1-c1c(OC)cccc1OC (stereo not shown) [Example 45, 6-butyl-5-(2,6-dimethoxyphenyl)-3-{5-[methoxy(phenyl)methyl]-1,3,4-oxadiazol-2-yl}pyridine-2,4-diol]
0.01 to 10 nM	CCCCc1nc(O)c(-c2nnc(Cc3csc(-c4ccccc4)n3)o2)c(O)c1-c1c(OC)cccc1OC [Example 46, 6-butyl-5-(2,6-dimethoxyphenyl)-3-{5-[(2-phenyl-1,3-thiazol-4-yl)methyl]-1,3,4-oxadiazol-2-yl}pyridine-2,4-diol]
0.01 to 10 nM	CCCCc1nc(O)c(-c2nnc(CCc3nc4ccccc4o3)o2)c(O)c1-c1c(OC)cccc1OC [Example 47, 3-{5-[2-(1,3-benzoxazol-2-yl)ethyl]-1,3,4-oxadiazol-2-yl}-6-butyl-5-(2,6-dimethoxyphenyl) pyridine-2,4-diol]
100 to 300 nM	CCCCc1nc(O)c(-c2nnc(Cc3cncs3)o2)c(O)c1-c1c(OC)cccc1OC [Example 49]
0.01 to 10 nM	CCCCc1nc(O)c(-c2nnc(CCc3nc(-c4cnccn4)no3)o2)c(O)c1-c1c(OC)cccc1OC [Example 52, 6-butyl-5-(2,6-dimethoxyphenyl)-3-(5-{2-[3-(pyrazin-2-yl)-1,2,4-oxadiazol-5-yl]ethyl}-1,3,4-oxadiazol-2-yl)pyridine-2,4-diol]
0.01 to 10 nM	CCCCc1nc(O)c(-c2nnc(Cc3nc(-c4ccccn4)no3)o2)c(O)c1-c1c(OC)cccc1OC [Example 55, 6-butyl-5-(2,6-dimethoxyphenyl)-3-(5-{[3-(pyridin-2-yl)-1,2,4-oxadiazol-5-yl]methyl}-1,3,4-oxadiazol-2-yl)pyridine-2,4-diol]
0.01 to 10 nM	CCCCc1nc(O)c(-c2nnc(CCc3nc4ccccc4n3C)o2)c(O)c1-c1c(OC)cccc1OC [Example 58, 6-butyl-5-(2,6-dimethoxyphenyl)-3-{5-[2-(1-methyl-1H-1,3-benzodiazol-2-yl)ethyl]-1,3,4-oxadiazol-2-yl}pyridine-2,4-diol]
